Laboratory results as given in patent US20100305098A1, “METHODS OF USE” (priority 2007, published 2010).

Experiments:
ADRB2 = target: T1, ADRB2 (Homo sapiens, UniProt P07550); test: FLIPR functional screen; format: cell-based; details: antagonist mode
T1 construct: purchased Millipore (outsourced screen)

S1P2 = target: T2, S1P2 (Homo sapiens, UniProt O95136); test: FLIPR functional screen; format: cell-based; details: antagonist mode
T2 construct: Millipore

GPR54 = target: T3, GPR54 (Homo sapiens, UniProt Q969F8); test: FLIPR functional screen; format: cell-based; details: antagonist mode
T3 construct: Millipore

S1P3 = target: T4, S1P3 (Homo sapiens, UniProt Q99500); test: FLIPR functional screen; format: cell-based; details: antagonist mode
T4 construct: Millipore

CB2 = target: T5, CB2 (Homo sapiens, UniProt P34972); test: FLIPR functional screen; format: cell-based; details: antagonist mode
T5 construct: Millipore

[1] = target: T6, Prostanoid, Thromboxane A2 (TP) (Homo sapiens, UniProt P21731); test: Competitive radioligand binding (MDS Pharma)
T6 construct: purchased MDS Pharma (outsourced assay)

5-HT1A = target: T7, 5-HT1A (Homo sapiens, UniProt P08908); test: FLIPR functional screen; format: cell-based; details: antagonist mode
T7 construct: purchased Millipore (outsourced screen)

MC2 = target: T8, MC2 (Homo sapiens, UniProt Q01718); test: FLIPR functional screen; format: cell-based; details: antagonist mode
T8 construct: Millipore

CCR4 = target: T9, CCR4 (Homo sapiens, UniProt P51679); test: FLIPR functional screen; format: cell-based; details: antagonist mode
T9 construct: Millipore

ADRB1 = target: T10, ADRB1 (Homo sapiens, UniProt P08588); test: FLIPR functional screen; format: cell-based; details: antagonist mode
T10 construct: purchased Millipore (outsourced screen)

CX3CR1 = target: T11, CX3CR1 (Homo sapiens, UniProt P49238); test: FLIPR functional screen; format: cell-based; details: antagonist mode
T11 construct: Millipore

5-HT2A = target: T12, 5-HT2A (Homo sapiens, UniProt P28223); test: FLIPR functional screen; format: cell-based; details: antagonist mode
T12 construct: purchased Millipore (outsourced screen)

DP = target: T13, DP (Homo sapiens, UniProt Q13258); test: FLIPR functional screen; format: cell-based; details: antagonist mode
T13 construct: Millipore

MOTILIN = target: T14, MOTILIN (Homo sapiens, UniProt O43193); test: FLIPR functional screen; format: cell-based; details: antagonist mode
T14 construct: Millipore

SST3 = target: T15, SST3 (Homo sapiens, UniProt P32745); test: FLIPR functional screen; format: cell-based; details: antagonist mode
T15 construct: Millipore

S1P1 = target: T16, S1P1 (Homo sapiens, UniProt P21453); test: FLIPR functional screen; format: cell-based; details: antagonist mode
T16 construct: Millipore

A2B = target: T17, A2B (Homo sapiens, UniProt P29275); test: FLIPR functional screen; format: cell-based; details: antagonist mode
T17 construct: purchased Millipore (outsourced screen)

GCGR = target: T18, GCGR (Homo sapiens, UniProt P47871); test: FLIPR functional screen; format: cell-based; details: antagonist mode
T18 construct: Millipore

GPR68 = target: T19, GPR68 (Homo sapiens, UniProt Q15743); test: FLIPR functional screen; format: cell-based; details: antagonist mode
T19 construct: Millipore

NK1 = target: T20, NK1 (Homo sapiens, UniProt P25103); test: FLIPR functional screen; format: cell-based; details: antagonist mode
T20 construct: Millipore

FPR2 = target: T21, FPR2 (Homo sapiens, UniProt P25090); test: FLIPR functional screen; format: cell-based; details: antagonist mode
T21 construct: Millipore

Y1 = target: T22, Y1 (Homo sapiens, UniProt P25929); test: FLIPR functional screen; format: cell-based; details: antagonist mode
T22 construct: Millipore

CCR8 = target: T23, CCR8 (Homo sapiens, UniProt P51685); test: FLIPR functional screen; format: cell-based; details: antagonist mode
T23 construct: Millipore

PK2 = target: T24, PK2 (Homo sapiens, UniProt Q8NFJ6); test: FLIPR functional screen; format: cell-based; details: antagonist mode
T24 construct: Millipore

CCR6 = target: T25, CCR6 (Homo sapiens, UniProt P51684); test: FLIPR functional screen; format: cell-based; details: antagonist mode
T25 construct: Millipore

Prostanoid CRTH2 = target: T26, Prostanoid CRTH2 (Homo sapiens, UniProt Q9Y5Y4); test: Competitive radioligand binding (MDS Pharma)
T26 construct: purchased MDS Pharma (outsourced assay)

OX1 = target: T27, OX1 (Homo sapiens, UniProt O43613); test: FLIPR functional screen; format: cell-based; details: antagonist mode
T27 construct: Millipore

H3 = target: T28, H3 (Homo sapiens, UniProt Q9Y5N1); test: FLIPR functional screen; format: cell-based; details: antagonist mode
T28 construct: Millipore

NTR1 = target: T29, NTR1 (Homo sapiens, UniProt P30989); test: FLIPR functional screen; format: cell-based; details: antagonist mode
T29 construct: Millipore

SST4 = target: T30, SST4 (Homo sapiens, UniProt P31391); test: FLIPR functional screen; format: cell-based; details: antagonist mode
T30 construct: Millipore

OPRD1 = target: T31, OPRD1 (Homo sapiens, UniProt P41143); test: FLIPR functional screen; format: cell-based; details: antagonist mode
T31 construct: Millipore

PTH1 = target: T32, PTH1 (Homo sapiens, UniProt Q03431); test: FLIPR functional screen; format: cell-based; details: antagonist mode
T32 construct: Millipore

CRF1 = target: T33, CRF1 (Homo sapiens, UniProt P34998); test: FLIPR functional screen; format: cell-based; details: antagonist mode
T33 construct: Millipore

GLP1 = target: T34, GLP1 (Homo sapiens, UniProt P43220); test: FLIPR functional screen; format: cell-based; details: antagonist mode
T34 construct: Millipore

CXCR1 = target: T35, CXCR1 (Homo sapiens, UniProt P25024); test: FLIPR functional screen; format: cell-based; details: antagonist mode
T35 construct: Millipore

ETB = target: T36, ETB (Homo sapiens, UniProt P24530); test: FLIPR functional screen; format: cell-based; details: antagonist mode
T36 construct: Millipore

CCR2B = target: T37, CCR2B (Homo sapiens, UniProt P41597); test: FLIPR functional screen; format: cell-based; details: antagonist mode
T37 construct: Millipore

FPR1 = target: T38, FPR1 (Homo sapiens, UniProt P21462); test: FLIPR functional screen; format: cell-based; details: antagonist mode
T38 construct: Millipore

RDKR2 = target: T39, RDKR2 (Homo sapiens, UniProt P30411); test: FLIPR functional screen; format: cell-based; details: antagonist mode
T39 construct: Millipore

V2 = target: T40, V2 (Homo sapiens, UniProt P30518); test: FLIPR functional screen; format: cell-based; details: antagonist mode
T40 construct: Millipore
T40 sequence (P30518 whole entry): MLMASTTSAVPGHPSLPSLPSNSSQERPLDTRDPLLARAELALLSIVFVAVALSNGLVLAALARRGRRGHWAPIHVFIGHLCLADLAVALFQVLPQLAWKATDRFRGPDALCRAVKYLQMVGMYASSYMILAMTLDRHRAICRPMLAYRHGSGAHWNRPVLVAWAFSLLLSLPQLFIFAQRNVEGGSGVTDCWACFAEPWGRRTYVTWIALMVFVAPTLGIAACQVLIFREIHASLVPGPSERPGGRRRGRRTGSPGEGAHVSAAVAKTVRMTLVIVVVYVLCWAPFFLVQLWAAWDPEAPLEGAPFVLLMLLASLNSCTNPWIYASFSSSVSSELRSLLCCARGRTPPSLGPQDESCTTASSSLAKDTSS

T26 sequence (Q9Y5Y4 whole entry): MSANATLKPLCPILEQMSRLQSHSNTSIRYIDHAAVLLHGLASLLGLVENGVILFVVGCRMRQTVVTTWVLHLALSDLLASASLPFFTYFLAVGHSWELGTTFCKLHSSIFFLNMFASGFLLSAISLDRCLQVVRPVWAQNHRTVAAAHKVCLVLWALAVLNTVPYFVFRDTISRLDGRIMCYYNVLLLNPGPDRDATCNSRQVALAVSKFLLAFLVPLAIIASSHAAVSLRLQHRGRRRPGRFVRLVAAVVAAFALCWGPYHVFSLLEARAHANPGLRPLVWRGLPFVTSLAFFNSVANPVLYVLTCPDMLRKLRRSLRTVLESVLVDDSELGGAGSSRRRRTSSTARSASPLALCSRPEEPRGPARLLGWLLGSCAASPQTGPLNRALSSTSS
T6 sequence (P21731 whole entry): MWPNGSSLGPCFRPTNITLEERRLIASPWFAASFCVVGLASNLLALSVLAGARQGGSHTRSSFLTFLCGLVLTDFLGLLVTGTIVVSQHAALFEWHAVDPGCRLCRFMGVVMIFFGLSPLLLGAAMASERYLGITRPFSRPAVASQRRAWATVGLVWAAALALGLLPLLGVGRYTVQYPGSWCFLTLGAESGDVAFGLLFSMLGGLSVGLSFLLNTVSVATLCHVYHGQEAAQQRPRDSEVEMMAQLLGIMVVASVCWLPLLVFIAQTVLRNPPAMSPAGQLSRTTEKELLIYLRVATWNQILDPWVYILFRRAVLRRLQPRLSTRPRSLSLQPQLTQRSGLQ
T1 sequence (P07550 whole entry): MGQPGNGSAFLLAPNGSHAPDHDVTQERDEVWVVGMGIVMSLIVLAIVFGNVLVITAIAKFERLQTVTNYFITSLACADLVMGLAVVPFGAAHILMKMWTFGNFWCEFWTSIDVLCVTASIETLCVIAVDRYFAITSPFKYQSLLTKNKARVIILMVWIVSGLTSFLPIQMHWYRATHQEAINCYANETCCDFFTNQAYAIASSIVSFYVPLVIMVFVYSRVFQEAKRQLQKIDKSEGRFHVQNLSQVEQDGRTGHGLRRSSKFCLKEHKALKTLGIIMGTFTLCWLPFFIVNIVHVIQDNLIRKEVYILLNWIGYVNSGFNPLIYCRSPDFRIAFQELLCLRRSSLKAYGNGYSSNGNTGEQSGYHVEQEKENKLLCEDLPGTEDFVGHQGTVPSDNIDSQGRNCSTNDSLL
T11 sequence (P49238 whole entry, species assumed): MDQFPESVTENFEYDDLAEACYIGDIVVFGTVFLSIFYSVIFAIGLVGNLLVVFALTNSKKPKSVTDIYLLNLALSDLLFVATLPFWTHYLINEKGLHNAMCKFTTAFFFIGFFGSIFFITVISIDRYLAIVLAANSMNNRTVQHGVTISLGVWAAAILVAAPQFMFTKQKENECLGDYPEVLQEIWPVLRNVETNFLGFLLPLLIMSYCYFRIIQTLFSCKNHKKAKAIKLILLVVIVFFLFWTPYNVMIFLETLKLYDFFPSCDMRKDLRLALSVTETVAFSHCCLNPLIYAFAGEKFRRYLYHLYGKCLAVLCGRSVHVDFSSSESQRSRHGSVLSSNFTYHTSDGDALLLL
T25 sequence (P51684 whole entry): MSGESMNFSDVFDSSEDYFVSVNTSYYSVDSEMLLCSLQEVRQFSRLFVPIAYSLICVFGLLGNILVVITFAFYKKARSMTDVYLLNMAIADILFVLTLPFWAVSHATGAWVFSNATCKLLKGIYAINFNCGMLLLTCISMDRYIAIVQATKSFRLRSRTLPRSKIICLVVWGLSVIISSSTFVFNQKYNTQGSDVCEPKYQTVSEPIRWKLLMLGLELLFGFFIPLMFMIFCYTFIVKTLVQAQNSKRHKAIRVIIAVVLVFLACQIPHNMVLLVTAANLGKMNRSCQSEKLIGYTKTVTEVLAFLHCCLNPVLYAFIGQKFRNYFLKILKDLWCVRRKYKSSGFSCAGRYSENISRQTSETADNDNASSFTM
T28 sequence (Q9Y5N1 whole entry): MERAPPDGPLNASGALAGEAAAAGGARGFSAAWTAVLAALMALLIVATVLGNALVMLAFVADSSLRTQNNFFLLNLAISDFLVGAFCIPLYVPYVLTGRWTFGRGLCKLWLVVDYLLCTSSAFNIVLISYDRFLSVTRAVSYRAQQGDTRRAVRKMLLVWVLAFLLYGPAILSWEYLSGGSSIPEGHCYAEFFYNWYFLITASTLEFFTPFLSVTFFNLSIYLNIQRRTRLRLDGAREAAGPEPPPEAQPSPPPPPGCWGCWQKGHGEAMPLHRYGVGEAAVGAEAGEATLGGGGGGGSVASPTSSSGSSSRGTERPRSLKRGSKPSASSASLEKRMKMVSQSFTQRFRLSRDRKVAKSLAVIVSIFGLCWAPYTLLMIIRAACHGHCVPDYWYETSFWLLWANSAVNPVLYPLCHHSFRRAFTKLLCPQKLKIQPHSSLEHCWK
T27 sequence (O43613 whole entry): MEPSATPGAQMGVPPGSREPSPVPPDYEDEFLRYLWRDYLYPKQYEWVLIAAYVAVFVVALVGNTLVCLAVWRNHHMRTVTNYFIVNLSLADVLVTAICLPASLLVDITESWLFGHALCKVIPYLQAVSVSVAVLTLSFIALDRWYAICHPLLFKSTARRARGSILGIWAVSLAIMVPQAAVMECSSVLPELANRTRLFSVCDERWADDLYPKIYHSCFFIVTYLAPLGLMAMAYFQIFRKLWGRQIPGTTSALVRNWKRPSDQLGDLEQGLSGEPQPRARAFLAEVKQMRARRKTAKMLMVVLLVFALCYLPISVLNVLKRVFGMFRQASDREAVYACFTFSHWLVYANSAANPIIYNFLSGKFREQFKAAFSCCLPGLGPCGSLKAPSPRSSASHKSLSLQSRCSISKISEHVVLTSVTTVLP
T10 sequence (P08588 whole entry): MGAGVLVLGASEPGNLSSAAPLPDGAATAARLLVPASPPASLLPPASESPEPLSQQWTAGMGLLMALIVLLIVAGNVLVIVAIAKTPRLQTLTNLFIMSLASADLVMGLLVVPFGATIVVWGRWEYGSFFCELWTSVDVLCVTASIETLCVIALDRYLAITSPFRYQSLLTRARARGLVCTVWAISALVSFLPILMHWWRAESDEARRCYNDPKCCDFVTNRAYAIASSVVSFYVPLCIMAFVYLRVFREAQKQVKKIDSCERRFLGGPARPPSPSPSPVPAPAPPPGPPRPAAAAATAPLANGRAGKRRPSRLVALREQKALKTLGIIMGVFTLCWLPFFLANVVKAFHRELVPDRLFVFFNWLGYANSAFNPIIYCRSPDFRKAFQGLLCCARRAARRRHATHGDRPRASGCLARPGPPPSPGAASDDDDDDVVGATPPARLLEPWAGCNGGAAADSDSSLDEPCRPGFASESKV
T34 sequence (P43220 24-463): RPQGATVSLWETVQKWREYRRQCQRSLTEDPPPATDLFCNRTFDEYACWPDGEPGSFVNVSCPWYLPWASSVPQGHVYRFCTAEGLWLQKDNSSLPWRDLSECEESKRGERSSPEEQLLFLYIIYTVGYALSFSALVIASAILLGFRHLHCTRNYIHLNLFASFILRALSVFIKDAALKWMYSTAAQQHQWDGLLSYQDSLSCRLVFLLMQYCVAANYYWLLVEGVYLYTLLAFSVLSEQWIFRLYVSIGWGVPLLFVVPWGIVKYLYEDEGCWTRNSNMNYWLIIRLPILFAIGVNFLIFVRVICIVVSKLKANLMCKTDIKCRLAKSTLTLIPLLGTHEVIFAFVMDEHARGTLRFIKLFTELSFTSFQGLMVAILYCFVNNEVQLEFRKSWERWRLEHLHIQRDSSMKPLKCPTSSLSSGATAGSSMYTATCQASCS
T14 sequence (O43193 whole entry): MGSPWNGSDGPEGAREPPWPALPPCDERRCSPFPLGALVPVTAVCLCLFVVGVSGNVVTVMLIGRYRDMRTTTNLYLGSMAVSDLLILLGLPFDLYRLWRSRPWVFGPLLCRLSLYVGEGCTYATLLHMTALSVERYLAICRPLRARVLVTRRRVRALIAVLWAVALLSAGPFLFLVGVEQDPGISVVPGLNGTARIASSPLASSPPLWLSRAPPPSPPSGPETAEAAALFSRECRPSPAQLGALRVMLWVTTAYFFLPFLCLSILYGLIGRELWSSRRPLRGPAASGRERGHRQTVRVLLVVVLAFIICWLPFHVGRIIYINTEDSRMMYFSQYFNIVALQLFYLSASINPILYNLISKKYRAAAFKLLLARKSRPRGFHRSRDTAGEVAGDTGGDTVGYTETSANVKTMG
T37 sequence (P41597 1-360 isoform P41597-2): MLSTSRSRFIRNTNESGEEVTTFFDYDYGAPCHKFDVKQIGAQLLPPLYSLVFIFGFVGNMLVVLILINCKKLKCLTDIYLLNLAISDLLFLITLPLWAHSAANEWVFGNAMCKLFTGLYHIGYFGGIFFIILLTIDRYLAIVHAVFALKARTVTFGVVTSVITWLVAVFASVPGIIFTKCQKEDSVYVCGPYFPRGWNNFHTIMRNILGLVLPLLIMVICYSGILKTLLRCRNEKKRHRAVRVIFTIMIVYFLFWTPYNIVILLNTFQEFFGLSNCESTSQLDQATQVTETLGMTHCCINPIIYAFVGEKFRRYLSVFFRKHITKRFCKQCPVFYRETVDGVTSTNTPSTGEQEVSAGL

CCN1C(=O)N2Cc3cc(OC)cc(OC)c3[C@@H](C)C=C2C12CCN(Cc1cccn1C)CC2 [ER-819924-01]
inhibition at 1 µM (ADRB2): -2.3% | inhibition at 1 µM (S1P2): -0.5% | inhibition at 1 µM (GPR54): -0.4% | inhibition at 1 µM (S1P3): 8.9% | inhibition at 1 µM (CB2): 9.3% | % INHIBITION ([1]; CONC. 0.1 μm): −3% | % INHIBITION ([1]; CONC. 1 μm): −14% | inhibition at 1 µM (5-HT1A): -1.6% | inhibition at 1 µM (MC2): -1% | inhibition at 1 µM (CCR4): -13.4% | inhibition at 1 µM (ADRB1): -15.3% | inhibition at 1 µM (CX3CR1): 1.7% | inhibition at 1 µM (5-HT2A): 8.8% | inhibition at 1 µM (DP): -5.8% | inhibition at 1 µM (MOTILIN): -0.9% | inhibition at 1 µM (SST3): -19.7% | inhibition at 1 µM (S1P1): 3.9% | inhibition at 1 µM (A2B): 6.9% | inhibition at 1 µM (GCGR): 8.6% | inhibition at 1 µM (GPR68): 13.4% | inhibition at 1 µM (NK1): 2.9% | inhibition at 1 µM (FPR2): 6.9% | inhibition at 1 µM (Y1): -22.7% | inhibition at 1 µM (CCR8): 2.9% | inhibition at 1 µM (PK2): -3.8% | inhibition at 1 µM (CCR6): -4.9% | % INHIBITION (Prostanoid CRTH2; CONC. 0.1 μm): 8% | % INHIBITION (Prostanoid CRTH2; CONC. 1 μm): −5% | inhibition at 1 µM (OX1): 0.7% | inhibition at 1 µM (H3): -31.5% | inhibition at 1 µM (NTR1): 0.5% | inhibition at 1 µM (SST4): -2.8% | inhibition at 1 µM (OPRD1): 5.7% | inhibition at 1 µM (PTH1): 3.9% | inhibition at 1 µM (CRF1): 3.9% | inhibition at 1 µM (GLP1): 10.6% | inhibition at 1 µM (CXCR1): 3.9% | inhibition at 1 µM (ETB): 6.2% | inhibition at 1 µM (CCR2B): 3.7% | inhibition at 1 µM (FPR1): 8% | inhibition at 1 µM (RDKR2): 1.7% | inhibition at 1 µM (V2): -24.8%
